{"source": "paper PMC8673480", "about": "(Journal of medicinal chemistry, 2021)", "target": "SARS-CoV-2 3CLpro (Severe acute respiratory syndrome coronavirus 2, UniProt P0DTD1)", "experiment": "cell-based"}
{"smiles": "CCCC1CCC(COC(=O)NC(CC(C)C)C(=O)NC(C=O)CC2CCNC2=O)CC1", "note": "[Compound 8b, ((1r,4R)-4-Propylcyclohexyl) methyl ((2S)-4-methyl-1-oxo-1-(((2S)-1-oxo-3-(2-oxopyrrolidin-3-yl)propan-2-yl)amino)pentan-2-yl) carbamate]", "values": [{"measurement": "EC50", "result": "1030 ± 490", "unit": "nM"}]}
